Measured values as given in patent publication US20250152616A1, “COMPOSITIONS FOR AND METHODS OF TREATING, PREVENTING, AND/OR MITIGATING PAIN” (Duke University, priority 2022, published 2025).

Test system: mouse model of stabilized unilateral tibial fracture
Experiment: Open field activity after tibial fracture
Assay type: in vivo
Experimental: The aim of the experiments described herein was to examine the effectiveness of local delivery of adenosine in tibial bone injury to concurrently attenuate fracture/post-surgical pain while promoting healing. All animal work was performed in compliance with the National Institutes of Health (NIH) and institutional guidelines, and the fracture surgery and biomaterial implantation protocols approved by the Institutional Animal Care and Use Committee at Duke University (Protocol Registry Number A151-20-07) were followed. C57BL/6J mice were used to study fracture nociception and the effect of local delivery of adenosine to mitigate pain and promote bone regeneration. Lepr-cre; tdTomato reporter mice were used for tracing of LepR(+) lineage cells after fracture. To determine the effect of adenosine on pain and healing, fracture surgeries were performed and treated immediately with PEGDA-6ACA-PBA macroporous hydrogels loaded with adenosine as treatment group or without adenosine as control group (Zeng Y, et al. (2020) Adv Mater. 32:e1906022). Behavioral tests for pain and limb function were assessed by weight bearing and open field locomotion. A priori power analysis was used to estimate the sample size requiring a statistical power (1−β) of 80% at the significance level of α=5%. On the basis of the power calculation, the indicated number was 8 animals per group for fracture pain and 4 animals per group for fracture healing. Ten animals per group were used to study the effect of adenosine on fracture pain, and 5 animals per group were used to examine the effect of adenosine on fracture healing. The exclusion criteria for experiments were animals that died due to the surgical procedures or shift of the intramedullary pin identified after experimental endpoint post-mortem. No randomization was used and researchers were not blinded. Measurement of adenosine in the circulation was performed by using an adenosine assay. The in vitro functional activity of DRG neurons was assessed by calcium and membrane potential imaging and the expression of proteins were assessed by histology or immunofluorescence imaging, and gene expression by RT-qPCR. Fracture healing was analyzed by microCT and histology. The study design and timeline of animal procedures (pin placement, surgery, therapeutic intervention with and without adenosine, and behavioral tests) are illustrated in FIG. 10A (weight bearing) and FIG. 10A (open field locomotion).
In all experiments, 12-week-old to 16-week-old C57BL/6J male mice (Jackson Laboratory, Bar Harbor, ME) and Lepr-cre; tdTomato reporter mice were used. The average mouse weight was 25 grams and mice were housed in groups of four to five, and kept on a 12-hr light-dark cycle with lights off at 1800 hr. All animals had ad libitum access to chow (PMI LabDiet 5001) and water. Fracture surgeries were performed as previously described (Zeng Y, et al. (2020) Adv Mater. 32:e1906022). Animals were anesthetized by isoflurane and injected with 1 mg/kg buprenorphine SR-LAB (ZooPharm, Laramie, WY). Each mouse was then placed in a supine position with the right tibia disinfected. After skin incision and reflection, proximal to the right knee, a 0.7-mm pin was inserted from the tibial plateau through the medullary cavity to stabilize the tibia, and a cut was made at the tibial midshaft to induce a transverse fracture. Bupivacaine (0.5%; Hospira, Lake Forest, IL) at ˜1 mg/kg body weight was applied at the surgical site following wound closure using 2 reflex clips (5 mm). For animals treated with control and adenosine-loaded macroporous hydrogels, macroporous hydrogels measuring approximately 5 mm (length)×3 mm (width)×1 mm (thick) containing either 1.05±0.1 mg adenosine (ADO) or no adenosine (CTL) were implanted adjacent to the fractures immediately. […] The animals were treated with the macroporous hydrogels with or without adenosine immediately following the fracture. […]

[1] = 7 dpf, sum over 60 min, ratio post-/pre-fracture

## Nc1ncnc2c1ncn2[C@@H]1O[C@H](CO)[C@@H](O)[C@H]1O [adenosine]
7 dpf, effect size r and Cohen's d, all measured parameters
  effect size of treatment on open field parameters: large effect sizes
[1]
  ambulatory activity counts vs control: significantly higher
  ambulatory time vs control: significantly higher
  rest time vs control: lower
  total distance vs control: significantly higher
  vertical activity counts vs control: significantly higher
  vertical movement time vs control: significantly higher
7 days post-fracture, most of the 5-min intervals, ratio post-/pre-fracture
  open field activity vs control at 5-min intervals (vertical, ambulatory, distance; lower rest time): higher levels of activity
